For data set [1], the system named is patients with neovascularisation extending under the center of the retina. To be noted: cited from earlier work.
Data set [2] has as its system patients with retinitis pigmentosa (RP) and related retinal degenerations. As to conditions: supplemental lutein; Dagnelie et al., 2000; cited from earlier work.
Data set [3] relates to microsomal membranes prepared from bovine RPE. The data set is described as follows: Retinyl ester formation and isomerization from [3H]retinols in microsomal membranes from bovine RPE. The class given is biochemical. On the procedure:
The retinyl-ester content of fresh bovine ocular tissues were analyzed. Bovine RPE contained approximately 95% all-trans-retinyl esters (atRE) and 5% 1cRE. No retinyl esters were detectable in bovine retinas. When [^3H]atROL was added to microsomal membranes prepared from bovine RPE, the formation of [3H]atRE, and subsequent formation of [^3H]11cROL were observed. […] The isomeric inhibitor, 11-cis-retinyl α-bromoacetate (cRBA) was also synthesized. This agent suppressed the formation of [^3H]11cRE from [^3H]11cROL added to bovine-RPE membranes, but had no effect on the synthesis of [^3H]atRE or [^3H]11cROL from added [^3H]atROL. No ester-synthase activity was detected in bovine retinas. The results of these studies on rod-dominant bovine eyes are in full accord with the published results of other investigators (Rando et al., 1992; Saari et al., 1994; Crouch et al., 1996; Trehan et al., 1990).

Data set [4] deals with membranes from chicken and ground squirrel retinas. Description: Retinyl ester formation and isomerization from [3H]atROL in membranes from chicken and ground squirrel retinas. As to conditions: chicken and ground squirrel retina membranes. The data set is classed as biochemical. The source says: There are striking differences in retinyl-ester content and retinoid turnover upon analysis of ocular tissues from cone-dominant ground squirrel and chicken. Chicken retinas contained 60% 11cRE and 40% atRE, while ground-squirrel retinas contained 80% 11cRE and 20% atRE. The ratio of cones to rods is 60:40 in chicken (Meyer et al., 1973), 96:4 in ground squirrel (West et al., 1975), 3:97 in mouse (Carter-Dawson et al., 1979), and 8:92 in bovine retina (Krebs et al., 1982). Thus, across multiple species, the level of 11cRE in retina is loosely correlated with the ratio of cone to rod photoreceptors. […] During time-course studies, [^3H]11cROL always preceded the appearance of [3H]11cRE. […] In particular, this new all-trans-retinol isomerase (atRI) is insensitive to tRBA. This insensitivity rules out the trivial explanation of RPE contamination in retinal membrane preparations. […] Unlike LRAT, this new ester synthase is not inhibited by tRBA or cRBA, and has high specificity for the 11cROL substrate.

A further data set deals with T1, LRAT (Bos taurus, UniProt Q9BGL2).
T1 construct: microsomal membranes prepared from bovine RPE; from tissue; host or cells: bovine retinal pigment epithelium, microsomal membranes
T1 sequence (Q9BGL2 1-230): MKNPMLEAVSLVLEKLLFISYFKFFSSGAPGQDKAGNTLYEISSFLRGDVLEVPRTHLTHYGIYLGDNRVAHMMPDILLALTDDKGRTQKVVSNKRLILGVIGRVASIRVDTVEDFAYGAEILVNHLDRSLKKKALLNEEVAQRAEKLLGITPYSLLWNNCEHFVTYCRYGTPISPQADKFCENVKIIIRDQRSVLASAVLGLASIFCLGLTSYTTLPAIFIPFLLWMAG
To be noted: Trehan et al., 1990; cited from earlier work.

For data set [5], the system named is mice. Description: Photoreceptor degeneration by histologic or electroretinographic (ERG) analysis after prolonged isotretinoin treatment. As to conditions: prolonged treatment at doses up to 50 mg/kg/day (25× the maximum human dose). The class given is in vivo, mouse. The source says:
(§1) Long delays in 11cRAL regeneration are also observed after a photobleach in mice treated with isotretinoin. This alteration in the retinoid profile is similar to the pattern in 11cRDH knockout-mice (Driessen et al., 2000).

The next data set relates to 11cRDH. As to conditions: Law et al., 1989, Gamble et al., 1999, cited from earlier work.
In data set [6] the test system is mice. To be noted: Yuschak et al., 1993; cited from earlier work.
The subject of a further data set is wild-type mice. Description: Retinoid profile after intraperitoneal injection of isotretinoin into light-adapted wild-type mice. The data set is classed as in vivo, mouse.
Source text: as §1

Another data set has as its system abcr−/− mice. The data set is described as follows: A2E and A2PE-H2 levels in ocular tissues of abcr−/− mice treated with isotretinoin (HPLC). The data set is classed as in vivo, mouse. On the procedure: FIG. 7—A2E and A2PE-H2 in abcr−/− ocular tissues following treatment with isotretinoin. A2E and A2PE-H2 were extracted from the indicated tissues and analyzed by HPLC as previously described (Mata et al., 2000; Weng et al., 1999). (FIG. 7A) A2E levels in abcr−/− RPE from four-month-old mice treated for one month with isotretinoin at 40 mg/kg/day (4-mo 13cRA), four-month-old mice treated with DMSO carrier alone (4-mo DMSO), and three-month-old untreated mice (3-mo untreated). (FIG. 7B) A2PE-H2 levels in abcr−/− RPE from the same animals in panel (A) plus four-month-old untreated mice (4-mo untreated). (FIG. 7C) A2PE-H2 levels in abcr−/− retinas from the same animals in panel (B). All data are shown as milliabsorption units (mAU) at the indicated wavelengths±SEM (n=3).
Tissue Preparation and Extraction. Mouse and human tissues were homogenized in 1 ml of PBS. For analysis of mouse outer segments, dissected retinas were shaken on a vortex mixer in 8% Optiprep/Ringer's buffer and fractionated by centrifugation through an Optiprep step-gradient according to the procedure of Tsang et al. (1998). Collected outer segments were suspended in 1 ml PBS and homogenized. 1 ml of chloroform/methanol (2:1, v/v) was added to each homogenate. Phospholipids and chloroform-soluble fluorophores were extracted twice from the samples following addition of 4 ml of chloroform and 3 ml water. The pooled organic phases were dried under a stream of argon. Sample residues were resuspended in 200- 400 μl of hexane, and analyzed by HPLC.
Sample extracts were analyzed by normal phase HPLC using an HP 1100 liquid chromatograph with a photodiode array detector. Chromatography conditions were as previously described (Birnbach et al., 1994) using a silica column (Microsorb 5 μm Si, 250×4.6 mm) and the mobile phase: hexane/2-propanol/ethanol/25 mM potassium phosphate/acetic acid (485:376:100:40:0.275, v/v; pH 7.0). For A2PE-H2 purification, the water content was reduced to 2.5% for better resolution of fatty acyl esters. Spectra for the eluted peaks were corrected by subtracting the nearest integrated baseline to remove solvent absorption. A2-E, phosphatidylethanolamine, and all-trans-RAL were quantitated by comparing the sample peak-area to a calibration curve constructed with authentic standards (18:0-22:6 for the phosphatidylethanolamine standard) (Birnbach et al., 1994). […] In Table 6, APE and protonated-APE were quantitated using published molar extinction coefficients (Anderson et al., 1996).
Three-month-old abcr−/− mice were treated with isotretinoin (13 cis retinoic acid) for one month.

For data set [7] the following is noted: humans; cited from earlier work.
The subject of another data set is humans. To be noted: clinical use for acne; due to impaired regeneration of rhodopsin; cited from earlier work.
A short description of data set [8]: Isotretinoin in retina and RPE by HPLC analysis after intraperitoneal injection.
Another data set has as its system rodent model. To be noted: cited from earlier work.
The mark [9] stands for this setting: light-adapted wild-type mice, intraperitoneal injection.

“Also recorded” adds a separate entry of the source. Where two headings read alike, the source gives them in different places.

The values below come from patent US20030032078A1, “Methods and compositions for the treatment of macular and retinal degenerations” (Board of Regents, The University of Texas System, priority 2001, published 2003).

Turning to verteporfin, the “risk of moderate and severe vision loss” value is 33% in data set [1] (at one year, reduced from 61%) and 41% in data set [1] (at two years, reduced from 69%).

In the case of `CC1=C[C@H](O)CC(C)(C)[C@H]1/C=C/C(C)=C/C=C/C(C)=C/C=C/C=C(C)/C=C/C=C(C)/C=C/C1=C(C)C[C@@H](O)CC1(C)C` [lutein], the effect on vision result in [2] is given as “short term improvements in vision”.

For `CC1=C(/C=C/C(C)=C/C=C/C(C)=C/COC(=O)CBr)C(C)(C)CCC1` [tRBA, all-trans-retinyl α-bromoacetate], in data set [3], the “formation of [3H]11cRE from added [3H]11cROL” value is on record as “completely inhibited”; the “formation of atRE and 11cROL from added [3H]atROL” value is on record as “completely suppressed”. Also, in [4], the “formation of [3H]11cROL or [3H]11cRE from added [3H]atROL” value is “no effect” and the “formation of [3H]atRE from added [3H]atROL” value was “completely suppressed”. At LRAT, the “inhibition of LRAT” value is on record as “potent inhibitor”.

Take `CC1=C(/C=C/C(C)=C/C=C/C(C)=C\C(=O)O)C(C)(C)CCC1` [isotretinoin, 13-cis-retinoic acid]: the “photoreceptor degeneration by histologic or electroretinographic (ERG) analysis” value in the data set with mice [5] was “No photoreceptor degeneration”. Further, the “inhibition of 11cRDH in RPE” value in the data set with 11cRDH is “potent inhibitor”. For the same molecule, the “inhibition of 11cRDH in RPE” value in the data set with 11cRDH (listed as Isotretinoin) is “inhibit 11cRDH”. Moreover, the tolerated dose entry in the data set with mice [6] is given as “up to 400 mg/kg/day”. Further, in the data set on wild-type mice (setting [9]), the “11cRAL and atRAL in outer segments” value is given as “Profound depletion”; the “11cRE in RPE cells” value is “accumulation”. Moreover, the “11cRAL regeneration after a photobleach” value in the data set with wild-type mice (mice treated with isotretinoin) is “Long delays”. Moreover, in the data set with abcr−/− mice (abcr−/− mice, isotretinoin 40 mg/kg/day for one month, FIG. 7A), the “suppression of A2E accumulation in RPE” value is reported as “approximately two-fold”. For the same molecule, in the data set with abcr−/− mice (abcr−/− mice, isotretinoin 40 mg/kg/day for one month, FIG. 7B), the “suppression of A2PE-H2 accumulation in RPE” value is listed as “approximately three-fold”. For the same molecule, in the data set with abcr−/− mice (four-month-old abcr−/− mice after one month of isotretinoin, FIG. 7C), the A2PE-H2 in retina entry was “near absence; also recorded: virtually undetectable”. The “A2E in RPE, level relative to sham-treated (DMSO) controls” value in the data set on abcr−/− mice (four-month-old abcr−/− mice treated for one month with isotretinoin at 40 mg/kg/day) is reported as “approximately 50%”. Further, the serum half-life in data set [7] was 10 to 20 h. In the data set on humans, the “side effect night blindness” value is given as “common side effect”. Moreover, the “detection in retina and RPE” value in data set [8] (five minutes following an intraperitoneal injection) is “detected”. In addition, the tissue concentrations result in data set [8] (one hour following a single injection at 4 mg/kg) is “micromolar range”.

Turning to `CC1=C(/C=C/C(C)=C/C=C\C(C)=C/COC(=O)CBr)C(C)(C)CCC1` [cRBA, 11-cis-retinyl α-bromoacetate], in [3], the “formation of [3H]11cRE from added [3H]11cROL” value is “suppressed”; the “formation of atRE and 11cROL from added [3H]atROL” value is listed as “no effect”. For the same molecule, the “synthesis of [3H]11cRE” value in data set [4] is listed as “no effect”.

B1: Glial Derived Neurotrophic Factor: a survival factor which has slowed degeneration in a rodent model (protein, UniProt P39905 78-211, looked up)
Glial cell line-derived …: SPDKQMAVLPRRERNRQAAAANPENSRGKGRRGQRGKNRGCVLTAIHLNVTDLGLGYETKEELIFRYCSGSCDAAETTYDKILKNLSRNRRLVSDKVGQACCRPIAFDDDLSFLDDNLVYHILRKHSAKRCGCI
As for B1, the “effect on retinal degeneration” value in the data set with rodent model is listed as “slowed degeneration”.
